Results reported in US9920061B2, “Imidazo[1,5-A]pyrimidinyl carboxamide compounds and their use in the treatment of medical disorders” (Lysosomal Therapeutics Inc., priority 2016, dated 2018).
Values after ≈ are worked out from the molar mass of the structure shown. Like-named read-outs stand apart in the source and are kept apart here.

What was measured:
[1] = target: T1, glucocerebrosidase (Gcase) (Homo sapiens, UniProt P04062); test: Glucocerebrosidase (Gcase) activation assay, 4-methylumbelliferyl-beta-D-glucopyranoside substrate, with saposin C; format: biochemical
T1 sequence (P04062 40-536): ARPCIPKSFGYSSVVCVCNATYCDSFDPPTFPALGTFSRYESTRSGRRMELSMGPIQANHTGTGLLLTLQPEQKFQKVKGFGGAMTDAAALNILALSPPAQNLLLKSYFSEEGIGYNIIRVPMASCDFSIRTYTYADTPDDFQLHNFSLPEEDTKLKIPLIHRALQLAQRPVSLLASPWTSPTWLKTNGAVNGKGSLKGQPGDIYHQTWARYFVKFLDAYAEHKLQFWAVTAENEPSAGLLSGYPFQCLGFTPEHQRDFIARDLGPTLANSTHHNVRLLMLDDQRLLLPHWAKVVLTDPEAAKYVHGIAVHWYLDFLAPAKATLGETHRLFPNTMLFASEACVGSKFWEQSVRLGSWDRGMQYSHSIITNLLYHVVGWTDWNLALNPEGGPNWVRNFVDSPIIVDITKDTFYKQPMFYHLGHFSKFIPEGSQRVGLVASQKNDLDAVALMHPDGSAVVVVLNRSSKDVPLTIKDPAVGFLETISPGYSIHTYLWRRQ
In short: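 Compounds tested at 1.0 and 0.1 μM, then in 8-point 3-fold curves, were pre-incubated 30 min at room temperature with 10 nM GCase plus 100 nM saposin C in PS/triton micelles, pH 4.7. Reaction with substrate (2 mM in micelles before mixing) ran 15 min; stopped at pH 12.5, read at ex 365/em 440 nm.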

[2] = Compound solubility in water; format: physicochemical
[3] = 0.1 μM test compound, read-out: Percent Gcase Activation 0.1 μM Test Compound
[4] = 1 μM test compound, read-out: Percent Gcase Activation 1 μM Test Compound
[5] = test compound at 0.1 μM, read-out: Percent Gcase Activation, 0.1 μM Test Compound
[6] = test compound at 1.0 μM, read-out: Percent Gcase Activation, 1 μM Test Compound

Compound | activation at 0.1 µM [1, 3] [%] | activation at 1 µM [1, 4] [%] | solubility [2] [µg/mL] | activation at 0.1 µM [1, 5] [%] | activation at 1 µM [1, 6] [%] | solubility ([2]; in water) [µg/mL]
Cc1cc(-c2nc(Cl)cs2)nc2c(C(=O)NC(C)(C)C3CC3)ncn12 [III-140] | < 10 | < 30 | 0.8 (≈ 2.13 µM) | – | – | –
Cc1cc(-c2sccc2C#N)nc2c(C(=O)NC(C3CC3)C(F)(F)F)ncn12 (stereo not drawn) [IV-37] | – | – | – | > 20 | > 60 | 2.4 (≈ 5.92 µM)
Cc1cc(C)n2cnc(C(=O)NC(C3CCCCC3)C(F)(F)F)c2n1 (stereo not drawn) [III-15] | > 20 | > 60 | 4 (≈ 11.3 µM) | – | – | –
C#CC(C)(C)NC(=O)c1ncn2c(C)cc(-c3cccc(OC)n3)nc12 [III-148] | < 10 | 30 to 60 | 4.9 (≈ 14 µM) | – | – | –
Cc1cc(-c2ccccc2C#N)nc2c(C(=O)NC(C3CC3)C(F)(F)F)ncn12 (stereo not drawn) [III-153] | > 20 | > 60 | 0.5 (≈ 1.25 µM) | – | – | –
Cc1cc(-c2ccc(F)cc2)nc2c(C(=O)NC(C3CC3)C(F)(F)F)ncn12 (stereo not drawn) [IV-44] | – | – | – | > 20 | > 60 | 0.8 (≈ 2.04 µM)
Cc1cc(OC(C)C)nc2c(C(=O)NC(C3CC3)C3CC3)ncn12 [III-178] | 10 to 20 | > 60 | 17.4 (≈ 53 µM) | – | – | –
CCc1cc(N2CCCC(F)(F)C2)nc2c(C(=O)NC(C)(C)C3CC3)ncn12 [III-136] | > 20 | > 60 | 17.2 (≈ 43.9 µM) | – | – | –
CCCCO[C@H]1C[C@H]2CC[C@@H](C1)[C@H]2NC(=O)c1ncn2c(C)cc(COC)nc12 [IV-4] | – | – | – | > 20 | > 60 | 16.4 (≈ 40.9 µM)
CCc1cc(-c2ccns2)nc2c(C(=O)NC(C)(C)C)ncn12 [IV-105] | – | – | – | 10 to 20 | > 60 | 15.9 (≈ 48.3 µM)
Cc1cc(-c2ccc3nncn3c2)nc2c(C(=O)NC(C3CC3)C(F)(F)F)ncn12 (stereo not drawn) [IV-43] | – | – | – | < 10 | < 30 | 17.5 (≈ 42.1 µM)
COCc1cc(-c2ccc(F)cc2)nc2c(C(=O)N[C@@H](C)C3CC3)ncn12 [III-36] | 10 to 20 | > 60 | 22 (≈ 59.7 µM) | – | – | –
Cc1cc(-c2csc(C#N)c2)nc2c(C(=O)NC(C3CC3)C(F)(F)F)ncn12 (stereo not drawn) [IV-87] | – | – | – | > 20 | > 60 | 9.2 (≈ 22.7 µM)
COc1cc(-c2cc(C)n3cnc(C(=O)NC(C4CC4)C4CC4)c3n2)ccc1Cl [III-175] | 10 to 20 | > 60 | 0.2 (≈ 0.487 µM) | – | – | –
CCCCO[C@H]1C[C@H]2CC[C@@H](C1)[C@@H]2NC(=O)c1ncn2c(C)cc(COC)nc12 [IV-5] | – | – | – | < 10 | > 60 | 24.3 (≈ 60.7 µM)
Cc1cc(-c2cccc(Cl)c2)nc2c(C(=O)N[C@@H](C)C3CC3)ncn12 [III-110] | > 20 | > 60 | 3.6 (≈ 10.1 µM) | – | – | –
Cc1cc(-c2cccnc2)nc2c(C(=O)NC(C)(C)C3CC3)ncn12 [III-41] | < 10 | 30 to 60 | 27.1 (≈ 80.8 µM) | – | – | –
Cc1cc(-c2ccc3c(c2)OCO3)nc2c(C(=O)N[C@@H](C)C(F)(F)F)ncn12 [IV-78] | – | – | – | > 20 | > 60 | 3.3 (≈ 8.41 µM)
Cc1cc(Oc2cccc(F)c2)nc2c(C(=O)N[C@@H](C)C3CC3)ncn12 [III-119] | < 10 | 30 to 60 | 8.8 (≈ 24.8 µM) | – | – | –
Cc1cc(C)n2cnc(C(=O)N[C@@H]3[C@@H]4CC[C@H]3C[C@@H](OC(C)(C)C)C4)c2n1 [IV-11] | – | – | – | > 20 | > 60 | 4.9 (≈ 13.2 µM)

Compound | activation at 0.1 µM [1, 3] [%] | activation at 1 µM [1, 4] [%] | solubility [2] [µg/mL] | activation at 0.1 µM [1, 5] [%] | activation at 1 µM [1, 6] [%] | solubility ([2]; in water) [µg/mL]
Cc1cc(-c2cccc(Cl)c2)nc2c(C(=O)NC(C)(C)C)ncn12 [III-134] | > 20 | > 60 | 2.4 (≈ 7 µM) | – | – | –
Cc1cc(OC2CCC2)nc2c(C(=O)NC(C3CC3)C3CC3)ncn12 [III-180] | 10 to 20 | > 60 | 23.3 (≈ 68.4 µM) | – | – | –
Cc1cc(-c2cccn3cnnc23)nc2c(C(=O)NC(C3CC3)C(F)(F)F)ncn12 (stereo not drawn) [IV-42] | – | – | – | < 10 | > 60 | 2.1 (≈ 5.06 µM)
Cc1cc(-c2cccc(F)c2)nc2c(C(=O)N[C@H](C3CC3)C(F)(F)F)ncn12 [IV-19] | – | – | – | > 20 | > 60 | 0.7 (≈ 1.78 µM)
COc1cc(-c2ccc(F)cc2)nc2c(C(=O)N[C@@H](C)C3CC3)ncn12 [III-34] | < 10 | < 30 | 0.2 (≈ 0.564 µM) | – | – | –
COc1cccc(-c2cc(C)n3cnc(C(=O)NC(C4CC4)C(F)(F)F)c3n2)c1C#N (stereo not drawn) [IV-69] | – | – | – | > 20 | > 60 | 1.3 (≈ 3.03 µM)
Cc1cc(-c2ccc(F)cc2)nc2c(C(=O)NC(C)C3CCCO3)ncn12 (stereo not drawn) [III-80] | < 10 | < 30 | 14.5 (≈ 39.4 µM) | – | – | –
C#CC(C)(C)NC(=O)c1ncn2c(C)cc(-c3cccc(Cl)c3)nc12 [III-135] | > 20 | > 60 | 0.3 (≈ 0.85 µM) | – | – | –
CCCCO[C@H]1C[C@H]2CC[C@@H](C1)[C@H]2NC(=O)c1ncn2c(C)cc(-c3cccnc3)nc12 [III-63] | > 20 | > 60 | 3.5 (≈ 8.07 µM) | – | – | –
Cc1cc(C)n2cnc(C(=O)NC(C)(C)C3CC4(CCC4)C3)c2n1 [III-25] | > 20 | > 60 | 1.5 (≈ 4.59 µM) | – | – | –
Cc1cc(-c2ccncc2)nc2c(C(=O)NC(C)(C)C3CC3)ncn12 [III-93] | < 10 | < 30 | 18.8 (≈ 56.1 µM) | – | – | –
Cc1cc(-c2cccc3ncoc23)nc2c(C(=O)NC(C3CC3)C(F)(F)F)ncn12 (stereo not drawn) [III-160] | > 20 | > 60 | 8.9 (≈ 21.4 µM) | – | – | –
Cc1cc(C)n2cnc(C(=O)NC(C)C3CCCCC3)c2n1 (stereo not drawn) [III-9] | < 10 | > 60 | 14.3 (≈ 47.6 µM) | – | – | –
Cc1cc(-c2cccc3ncoc23)nc2c(C(=O)N[C@@H](C3CC3)C(F)(F)F)ncn12 [IV-18] | – | – | – | > 20 | > 60 | 0.4 (≈ 0.963 µM)
Cc1cc(-c2cccnc2)nc2c(C(=O)NC(c3ccc(F)cc3)C(F)(F)F)ncn12 (stereo not drawn) [III-48] | > 20 | > 60 | 7.1 (≈ 16.5 µM) | – | – | –
Cc1cc(-c2ccccn2)nc2c(C(=O)NC(C3CC3)C(F)(F)F)ncn12 (stereo not drawn) [III-72] | 10 to 20 | > 60 | 4.7 (≈ 12.5 µM) | – | – | –
COc1ccc(-c2cc(C)n3cnc(C(=O)NC(C4CC4)C(F)(F)F)c3n2)cc1F (stereo not drawn) [IV-70] | – | – | – | > 20 | > 60 | 1.5 (≈ 3.55 µM)
Cc1cc(-c2cccc(F)c2C#N)nc2c(C(=O)NC(C3CC3)C(F)(F)F)ncn12 (stereo not drawn) [IV-38] | – | – | – | > 20 | > 60 | 0.4 (≈ 0.958 µM)
Cc1cc(-c2cc(Cl)ccn2)nc2c(C(=O)N[C@@H](C)C3CC3)ncn12 [III-104] | 10 to 20 | > 60 | 8 (≈ 22.5 µM) | – | – | –
Cc1cc(N2CCC(C)(C)C2=O)nc2c(C(=O)NC(C3CC3)C(F)(F)F)ncn12 (stereo not drawn) [III-144] | < 10 | 30 to 60 | 20.5 (≈ 50.1 µM) | – | – | –
